Values after ≈ are worked out from the molar mass of the structure shown. Counter-ions that a name gives are not always drawn. Like-named read-outs stand apart in the source and are kept apart here.
Assays:
[1] = cytotoxicity in MT-4 cells (MTT, culture medium in place of HIV); format: cell-based; details: human
Summary of the method: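 MT-4 cells (3.5×10^4 per well) exposed to diluted compound with culture medium added instead of HIV, 5 days at 37° C in CO2. MTT added for 1 h, formazan dissolved in Triton X-100/acidified isopropanol. OD read at 560 nm (690 nm reference) and compared with control.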

[2] = target: T1, purified recombinant HIV-1 reverse transcriptase (Human immunodeficiency virus type 1 group M subtype B, UniProt P04585); experiment: reverse transcriptase inhibition, poly(rA)/(dT) template primer, [3H]dTTP uptake; format: biochemical
T1 construct: purified recombinant HIV-1 reverse transcriptase; made in house; host or cells: Escherichia coli
Summary of the method: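 Inhibition reported as percent reduction of [3H]dTTP incorporation relative to solvent control, after 1 h at 37 °C at pH 8.3. Recombinant RT from E. coli, poly(rA) template with oligo(dT) primer, 4 μM unlabeled dTTP as substrate; product collected on DEAE filter mats.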

HIV (HTLV-IIIB strain) = experiment: microbe, parasite or virus in culture; format: cell-based; details: Human immunodeficiency virus 1, IIIB, MT4, 120 h
Summary of the method: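 MT-4 cells (3.5×10^4 per well) were infected with HIV at 60 pfu per well in the presence of diluted compound and incubated for 5 days at 37° C. Surviving cells were then measured by MTT reduction, with the formazan dissolved in acidified isopropanol containing Triton X-100.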

[3] = MT-4 cells, no virus, 37° C., 5 days, MTT, Table 3, read-out: CC50
[4] = MT-4 cells, 60 pfu HIV per well, 37° C., 5 days, MTT, Tables 1 and 2, read-out: EC50

| SMILES | CC50 at 120 h [1, 3] [mg/L] | IC50 [2] [µM] | EC50 (HIV (HTLV-IIIB strain)) [mg/L] | CC50 at 120 h ([1]; mt-4 cells) [mg/L] | EC50 (HIV (HTLV-IIIB strain); [4]) [mg/L] |
| --- | --- | --- | --- | --- | --- |
| CC(C)c1nc(COC(N)=O)n(C)c1Cc1cc(Cl)cc(Cl)c1 [Compound I-103, 2-carbamoyloxymethyl-5-(3,5-dichlorobenzyl)-4-isopropyl-1-methyl-1H-imidazole] | 10 to 100 (≈ 28.1 to 281 µM) | 19.1 | 0.5 (≈ 1.4 µM) |  |  |
| CC(C)c1nc(CO)n(Cc2ccsc2)c1Sc1cc(Cl)cc(Cl)c1 [Compound I-127, 5-(3,5-dichlorophenylthio)-2-hydroxymethyl-4-isopropyl-1-(13-thienylmethyl)-1H-imidazole hydrochloride] |  | 14.8 |  | 12.5 to 25 | 0.016 |
| CC(C)c1nc(CO)n(Cc2ccc(=O)[nH]c2)c1Sc1cc(Cl)cc(Cl)c1 [Compound 116a, 5-(3,5-dichlorophenylthio)-2-hydroxymethyl-1-(6-oxo-1,6-dihydro-pyridin-3-yl)methyl-4-isopropyl-1H-imidazole] |  | 3.06 |  | 30.7 (≈ 72.3 µM) | 0.004 (≈ 0.00943 µM) |
| CC(C)c1nc(COC(N)=O)n(Cc2cnc3ccccc3c2)c1Sc1cc(Cl)cc(Cl)c1 [Compound I-128, 2-carbamoyloxymethyl-5-(3,5-dichlorophenylthio)-4-isopropyl-1-(quinolin-3-ylmethyl)-1H-imidazole] |  | 5.38 |  | > 100 | < 0.008 |
| CCn1c(COC(N)=O)nc(C(C)C)c1Sc1cc(F)cc(F)c1 [Compound I-58, 2-carbamoyloxymethyl-5-(3,5-difluorophenylthio)-1-ethyl-4-isopropyl-1H-imidazole] | 10 to 100 (≈ 28.1 to 281 µM) | 0.422 | 0.002 (≈ 0.00563 µM) |  |  |
| CC(C)c1nc(COC(N)=O)n(Cc2cccnc2)c1Sc1cc(Cl)cc(Cl)c1 [Compound I-92, 2-carbamoyloxymethyl-5-(3,5-dichlorophenylthio)-4-isopropyl-1-(pyridin-3-yl)methyl-1H-imidazole] |  | 0.775 | 0.001 (≈ 0.00222 µM) | 12.5 to 24 (≈ 27.7 to 53.2 µM) |  |
| CC(C)c1nc(CN)n(CC(F)(F)F)c1Sc1cc(Cl)cc(Cl)c1 [Compound I-76, 2-aminomethyl-5-(3,5-dichlorophenylthio)-4-isopropyl-1-(2,2,2-trifluoroethyl)-1H-imidazole] | 6.3 to 12.5 (≈ 15.8 to 31.4 µM) | 8.79 |  |  | 0.016 (≈ 0.0402 µM) |
| CC(C)c1nc(COC(N)=O)n(CCOC(N)=O)c1Sc1cc(Cl)cc(Cl)c1 [Compound I-134, 1-(2-carbamoyloxyethyl)-2-carbamoyloxymethyl-5-(3,5-dichlorophenylthio)-4-isopropyl-1H-imidazole] |  | 1.54 |  | 12.5 to 25 (≈ 27.9 to 55.9 µM) | 0.0013 (≈ 0.00291 µM) |
| CC(C)c1nc(C=O)n(C)c1Sc1cc(Cl)cc(Cl)c1 [Compound I-7, 5-(3,5-dichlorophenylthio)-4-isopropyl-1-methyl-1H-imidazole-2-carbaldehyde] | 10 to 100 (≈ 30.4 to 304 µM) | 131 |  |  | 0.13 (≈ 0.395 µM) |
| CC(C)c1nc(CCCO)n(CCO)c1Sc1cc(Cl)cc(Cl)c1 [Compound 137d, 3-(5-(3,5-dichlorophenylthio)-1-(2-hydroxyethyl)-4-isopropyl-1H-imidazol-2-yl)-propan-1-ol] |  | 6.68 |  | 6.3 to 12.5 (≈ 16.2 to 32.1 µM) | < 0.008 |
| CC(C)c1nc(COC(N)=O)n(Cc2ccc(=O)[nH]c2)c1Sc1cc(Cl)cc(Cl)c1 [Compound I-131, 2-carbamoyloxymethyl-5-(3,5-dichlorophenylthio)-1-(6-oxo-1,6-dihydro-pyridin-3-yl)methyl-4-isopropyl-1H-imidazoles] |  | 2.78 |  | 38.8 (≈ 83 µM) | 0.003 (≈ 0.00642 µM) |
| Cc1cc(C)cc(Sc2c(C(C)C)nc(C)n2C)c1 [Compound I-2, 5-(3,5-dimethylphenylthio)-1,2-dimethyl-4-isopropyl-1H-imidazole] | 25 (≈ 91.1 µM) | 7.65 |  |  | 0.008 (≈ 0.0292 µM) |
| Cc1nc(C(C)C#N)c(Sc2cccc(Cl)c2)n1C (stereo not drawn) [Compound I-97, 2-[5-(3-chlorophenylthio)-1,2-dimethyl-1H-imidazol-4-yl]propiononitrile] | 10 to 100 (≈ 34.3 to 343 µM) | 25.4 |  |  | 0.06 to 0.13 (≈ 0.206 to 0.445 µM) |

Reference: US6147097A, “Imidazole derivatives as anti-HIV agents” (Shionogi & Co., Ltd., priority 1994, dated 2000)
